Columns and labels:
CAXII = target: T1, CAXII (Homo sapiens, UniProt O43570); assay: biochemical; assay type: binding; conditions: for Kd: FTSA, pH 7.0, 37 °C, read-out: Observed Dissociation Constant (Kd_obs), CAXII
T1 construct: made in house; host or cells: E. coli
Protocol: (§1) Human CA isozymes were expressed in E. coli (CAI, II, III, IV, VA, VB, VII, XII, XIII, XIV) or mammalian cells (CAVI and CAIX), chromatographically purified following the published protocols [47], and stored at −80 °C. The protein concentration was determined by UV absorption at 280 nm using Beer–Lambert law.
(§2) The QIAGEN Rotor-Gene Q was used to carry out the experiments, with a blue channel used for excitation (365 nm) and detection (460 nm). FTSA in this case relies on an extrinsic probe, 8-anilino-1-naphthalenesulfonate (ANS), to detect the fluorescence increase during protein denaturation, from which protein melting temperature (Tm) can be determined. […] The observed affinity of ligands for CAs was determined by plotting the Tm as a function of ligand concentration and then fitting a curve as described previously [48]. […] Samples were heated from 25 °C to 99 °C at the speed of 1 °C/min.
(§3) The intrinsic thermodynamic parameters were calculated as described in [40]. The intrinsic reaction of inhibitor binding to CA is shown in Equation (1).
(§4) When calculating Kd_int values, these protein and ligand fractions from Equation (1) have to be accounted for (Equations (2) and (3)). The intrinsic dissociation constant is calculated by multiplying Kd_obs value by the corresponding fractions of protein and ligand (Equation (4)). (2) fRSO2NH^−=10^pH−pKa_RSO2NH2/1+10^pH−pKa_RSO2NH2 (3) fCAZnH2O=1−10^pH−pKa_CAZnH2O/1+10^pH−pKa_CAZnH2O (4) Kd_int=Kd_obs×fRSO2NH^−×fCAZnH2O (5) ΔGint0=RTlnKd_int
(§5) The intrinsic standard Gibbs energy changes upon binding were calculated using Equation (5). Here, R—universal ideal gas constant (8.3144 J/mol·K), T—absolute temperature (310.15 K).

CAI = target: T2, CAI (Homo sapiens, UniProt P00915); assay: biochemical; assay type: binding; conditions: for Kd: FTSA, pH 7.0, 37 °C, read-out: Observed Dissociation Constant (Kd_obs), CAI
T2 construct: made in house; host or cells: E. coli
T2 sequence (P00915 whole entry): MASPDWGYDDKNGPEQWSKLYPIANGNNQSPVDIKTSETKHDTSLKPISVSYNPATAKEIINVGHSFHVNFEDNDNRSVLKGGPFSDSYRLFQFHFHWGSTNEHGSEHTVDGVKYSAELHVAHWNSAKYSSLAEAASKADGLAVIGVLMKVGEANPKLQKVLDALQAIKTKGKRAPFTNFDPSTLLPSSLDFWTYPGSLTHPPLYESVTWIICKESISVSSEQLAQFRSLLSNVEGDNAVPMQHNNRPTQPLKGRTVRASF

CAVA = target: T3, CAVA (Homo sapiens, UniProt P35218); assay: Fluorescent thermal shift assay (FTSA), CAVA; assay type: binding; conditions: for Kd: FTSA, pH 7.0, 37 °C, read-out: Observed Dissociation Constant (Kd_obs), CAVA
T3 construct: made in house; host or cells: E. coli
T3 sequence (P35218 39-305): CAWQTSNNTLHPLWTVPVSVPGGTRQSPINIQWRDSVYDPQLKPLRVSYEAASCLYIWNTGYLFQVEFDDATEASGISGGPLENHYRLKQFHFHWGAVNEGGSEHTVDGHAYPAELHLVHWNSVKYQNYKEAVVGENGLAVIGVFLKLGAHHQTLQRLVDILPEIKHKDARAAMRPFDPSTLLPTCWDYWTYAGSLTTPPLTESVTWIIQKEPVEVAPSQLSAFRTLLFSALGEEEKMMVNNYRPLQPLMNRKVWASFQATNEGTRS

CAIV = target: T4, CAIV (Homo sapiens, UniProt P22748); assay: Fluorescent thermal shift assay (FTSA), CAIV; assay type: binding; conditions: for Kd: FTSA, pH 7.0, 37 °C, read-out: Observed Dissociation Constant (Kd_obs), CAIV;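 for all read-outs here: recombinant human enzyme, thermal denaturation followed by ANS fluorescence, melting temperature versus ligand concentration fitted for Kd_obs, intrinsic value corrected for deprotonated sulfonamide and Zn-bound water fractions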
T4 construct: made in house; host or cells: E. coli
T4 sequence (P22748 19-312): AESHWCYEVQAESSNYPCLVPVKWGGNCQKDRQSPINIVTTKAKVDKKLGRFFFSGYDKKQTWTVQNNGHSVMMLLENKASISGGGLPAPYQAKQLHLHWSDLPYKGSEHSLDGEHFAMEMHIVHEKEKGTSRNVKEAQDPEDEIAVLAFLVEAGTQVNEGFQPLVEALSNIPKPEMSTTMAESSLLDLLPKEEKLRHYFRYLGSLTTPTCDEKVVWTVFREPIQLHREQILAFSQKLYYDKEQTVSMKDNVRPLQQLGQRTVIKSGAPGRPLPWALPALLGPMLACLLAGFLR
Protocol: as §1, §2
(§6) The intrinsic thermodynamic parameters were calculated as described in [40]. The intrinsic reaction of inhibitor binding to CA is shown in Equation (1). […] It is known that CA proteins bind sulfonamides only when water molecules are coordinated to the Zn(II) ion, and sulfonamides only bind to CA proteins when their amino group is deprotonated (confirmed by neutron crystallography [53, 54, 55]):(1) CA Zn^II−H2O+RSO2NH^−⇄ CA Zn^II−NH SO2R+H2O
as §4, §5

CAXIII [1] = target: T5, CAXIII (Homo sapiens, UniProt Q8N1Q1); assay: biochemical; conditions: Observed Dissociation Constant (Kd_obs), FTSA, pH 7.0, 37 °C;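 note: recombinant human CAXIII melting temperature tracked by ANS fluorescence in thermal shift assay, Tm fitted against ligand concentration, intrinsic value corrects Kd for deprotonated sulfonamide and Zn-bound water fractions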
T5 sequence (Q8N1Q1 whole entry): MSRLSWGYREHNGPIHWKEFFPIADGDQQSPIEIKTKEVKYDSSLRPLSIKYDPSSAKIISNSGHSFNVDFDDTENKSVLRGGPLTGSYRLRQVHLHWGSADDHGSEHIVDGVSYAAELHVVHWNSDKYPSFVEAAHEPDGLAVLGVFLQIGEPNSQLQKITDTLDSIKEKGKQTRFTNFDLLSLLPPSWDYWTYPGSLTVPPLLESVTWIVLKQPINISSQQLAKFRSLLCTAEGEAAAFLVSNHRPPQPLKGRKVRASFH

CAVB = target: T6, CAVB (Homo sapiens, UniProt Q9Y2D0); assay: Fluorescent thermal shift assay (FTSA), CAVB; assay type: binding; conditions: for Kd: FTSA, pH 7.0, 37 °C, read-out: Observed Dissociation Constant (Kd_obs), CAVB
T6 construct: made in house; host or cells: E. coli
T6 sequence (Q9Y2D0 34-317): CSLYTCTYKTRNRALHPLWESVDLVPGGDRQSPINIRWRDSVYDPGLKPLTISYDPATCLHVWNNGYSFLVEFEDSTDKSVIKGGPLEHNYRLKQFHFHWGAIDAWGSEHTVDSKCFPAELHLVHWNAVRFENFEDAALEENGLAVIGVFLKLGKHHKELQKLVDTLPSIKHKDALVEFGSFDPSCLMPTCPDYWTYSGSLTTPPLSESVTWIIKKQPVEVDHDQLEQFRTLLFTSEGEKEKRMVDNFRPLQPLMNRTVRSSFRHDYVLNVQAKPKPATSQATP
Protocol: as §1, §2, §6, §4, §5

CAVI = target: T7, CAVI (Homo sapiens, UniProt P23280); assay: Fluorescent thermal shift assay (FTSA), CAVI; assay type: binding; conditions: for Kd: FTSA, pH 7.0, 37 °C, read-out: Observed Dissociation Constant (Kd_obs), CAVI;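 for all read-outs here: human CAVI expressed in mammalian cells, ANS fluorescence tracked during thermal unfolding, melting temperature fitted against ligand concentration, intrinsic values corrected for deprotonated sulfonamide and Zn-bound water fractions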
T7 construct: made in house
T7 sequence (P23280 21-290 limits assumed): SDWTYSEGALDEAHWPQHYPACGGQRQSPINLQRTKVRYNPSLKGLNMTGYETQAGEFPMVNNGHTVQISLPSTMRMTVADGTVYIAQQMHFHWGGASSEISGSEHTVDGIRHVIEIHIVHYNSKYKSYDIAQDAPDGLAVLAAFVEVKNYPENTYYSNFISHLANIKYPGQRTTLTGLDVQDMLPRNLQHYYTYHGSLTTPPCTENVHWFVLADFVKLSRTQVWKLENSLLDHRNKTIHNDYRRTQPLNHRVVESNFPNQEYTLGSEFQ

CAVII = target: T8, CAVII (Homo sapiens, UniProt P43166); assay: Fluorescent thermal shift assay (FTSA), CAVII; assay type: binding; conditions: for Kd: FTSA, pH 7.0, 37 °C, read-out: Observed Dissociation Constant (Kd_obs), CAVII
T8 construct: made in house; host or cells: E. coli
T8 sequence (P43166 whole entry): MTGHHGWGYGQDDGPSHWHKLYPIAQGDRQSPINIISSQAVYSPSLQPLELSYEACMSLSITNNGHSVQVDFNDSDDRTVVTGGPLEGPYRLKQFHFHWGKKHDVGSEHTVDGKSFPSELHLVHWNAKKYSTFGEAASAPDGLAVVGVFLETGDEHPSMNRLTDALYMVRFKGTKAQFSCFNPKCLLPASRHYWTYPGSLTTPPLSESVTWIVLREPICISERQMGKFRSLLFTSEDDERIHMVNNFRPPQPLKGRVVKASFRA
Protocol: as §1, §2, §6, §4, §5

CAIX = target: T9, CAIX (Homo sapiens, UniProt Q16790); assay: biochemical; assay type: binding; conditions: for Kd: FTSA, pH 7.0, 37 °C, read-out: Observed Dissociation Constant (Kd_obs), CAIX
T9 construct: made in house
Protocol: as §1, §2, §3, §4, §5

CAIII = target: T10, CAIII (Homo sapiens, UniProt P07451); assay: Fluorescent thermal shift assay (FTSA), CAIII; assay type: binding; conditions: for Kd: FTSA, pH 7.0, 37 °C, read-out: Observed Dissociation Constant (Kd_obs), CAIII
T10 construct: made in house; host or cells: E. coli
T10 sequence (P07451 whole entry): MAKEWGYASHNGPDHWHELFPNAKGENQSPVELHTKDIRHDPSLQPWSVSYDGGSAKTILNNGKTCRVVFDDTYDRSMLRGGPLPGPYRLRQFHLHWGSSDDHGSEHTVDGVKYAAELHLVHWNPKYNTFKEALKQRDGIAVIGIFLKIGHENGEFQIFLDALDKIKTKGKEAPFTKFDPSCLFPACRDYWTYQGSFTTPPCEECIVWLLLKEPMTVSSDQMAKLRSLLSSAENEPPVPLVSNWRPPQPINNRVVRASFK
Protocol: as §1, §2, §6, §4, §5

CAII = target: T11, CAII (Homo sapiens, UniProt P00918); assay: biochemical; assay type: binding; conditions: for Kd: FTSA, pH 7.0, 37 °C, read-out: Observed Dissociation Constant (Kd_obs), CAII
T11 construct: made in house; host or cells: E. coli
Protocol: as §1, §2, §3, §4, §5

CAXIV = target: T12, CAXIV (Homo sapiens, UniProt Q9ULX7); assay: Fluorescent thermal shift assay (FTSA), CAXIV; assay type: binding; conditions: for Kd: FTSA, pH 7.0, 37 °C, read-out: Observed Dissociation Constant (Kd_obs), CAXIV;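 for all read-outs here: recombinant human CA XIV from E. coli, ANS-based thermal shift: Kd_obs fitted from melting temperature versus ligand concentration, ΔGint from Kd_obs corrected for deprotonated sulfonamide and Zn-water fractions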
T12 construct: made in house; host or cells: E. coli
T12 sequence (Q9ULX7 16-337): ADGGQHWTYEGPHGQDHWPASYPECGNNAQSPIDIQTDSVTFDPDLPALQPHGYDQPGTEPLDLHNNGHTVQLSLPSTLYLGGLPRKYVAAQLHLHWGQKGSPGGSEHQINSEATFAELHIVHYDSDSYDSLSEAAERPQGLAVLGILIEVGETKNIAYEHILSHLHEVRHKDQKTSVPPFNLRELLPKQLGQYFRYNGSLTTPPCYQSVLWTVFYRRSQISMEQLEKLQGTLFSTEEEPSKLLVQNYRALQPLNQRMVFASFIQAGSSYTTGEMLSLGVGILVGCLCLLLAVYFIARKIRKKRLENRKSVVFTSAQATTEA

CAXIII [2] = target: T5, CAXIII; conditions: 37 °C; calculated (Equation 5)
[3] = Determination of compound sulfonamide group pKa (UV-Vis spectra at different pH); assay type: physicochemical; conditions: universal buffer; spectrophotometric, 37 °C; read-out: Sulfonamide pKa
Protocol: To calculate the intrinsic thermodynamic parameters of compound binding to CA isozymes, the pKa values of the sulfonamide group and the water molecule bound to the Zn(II) ion at the active site of CA proteins had to be determined. The pKa values for CA isozyme-bound water molecules were taken from, CAI—8.1; CAII—6.9; CAIII—6.5; CAIV—6.6; CAVA—6.7; CAVB—7.0; CAVI—6.0; CAVII—6.8; CAIX—6.6; CAXII—6.8; CAXIII—8.0; CAXIV—6.1. […] The pKa values were calculated as described previously in [28, 52] by normalizing the absorbance, plotting it as a function of pH, then fitting to the Henderson–Hasselbalch equation using the least square method (Figure S105).
Since the pKa values were only able to be measured for compound group 26–36, due to universal buffer pH limitations, intrinsic thermodynamic parameters were not calculated for compounds 2(a,b)–25(a,b), only for compounds 26–36 using experimentally obtained pKa values when possible and using the average pKa value mentioned above for compounds not measured.
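Throughout, for Observed Dissociation Constant (Kd obs), CAXII: recombinant CAXII made in E. coli, ANS-fluorescence thermal shift with affinity fitted from Tm versus ligand concentration, intrinsic energy from Kd_obs corrected for deprotonated sulfonamide and Zn-water fractions.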

T1 sequence (O43570 25-354): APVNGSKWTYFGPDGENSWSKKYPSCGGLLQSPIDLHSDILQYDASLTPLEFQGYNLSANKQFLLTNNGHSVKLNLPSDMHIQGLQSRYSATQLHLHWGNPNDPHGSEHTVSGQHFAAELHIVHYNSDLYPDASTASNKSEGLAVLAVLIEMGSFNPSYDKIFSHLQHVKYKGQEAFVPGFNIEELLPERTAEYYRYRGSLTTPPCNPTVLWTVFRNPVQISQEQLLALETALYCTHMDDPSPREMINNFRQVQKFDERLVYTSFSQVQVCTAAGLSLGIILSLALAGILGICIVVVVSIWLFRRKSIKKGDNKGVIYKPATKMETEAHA

| Compound | Kd (CAXII) [nM] | melting point [°C] | Kd (CAI) [nM] | Kd (CAVA) [nM] | Kd (CAIV) [nM] | Kd (CAXIII [1]) [nM] | Kd (CAVB) [nM] | Kd (CAVI) [nM] | Kd (CAVII) [nM] | Kd (CAIX) [nM] | Kd (CAIII) [nM] | Kd (CAII) [nM] | Kd (CAXIV) [nM] | other results |
| --- | --- | --- | --- | --- | --- | --- | --- | --- | --- | --- | --- | --- | --- | --- |
| NS(=O)(=O)c1ccc(NCC(CC(=O)NN=Cc2ccc(C(=O)O)cc2)C(=O)NN=Cc2ccc(C(=O)O)cc2)cc1 (stereo not shown) [Compound 18a, 4,4′-(((2-(((4-Sulfamoylphenyl)amino)methyl)succinyl)bis(hydrazin-2-yl-1-ylidene))bis(methaneylylidene))dibenzoic acid] | 20000 | 308 to 309 | 20000 | 20000 | 33000 | 25000 | 14000 | 33000 | 6700 | 1400 | ≥ 200000 | 5000 | 5000 | – |
| NS(=O)(=O)c1ccc(NCC(CC(=O)NN=Cc2ccc(C(=O)O)cc2)C(=O)NN=Cc2ccc(C(=O)O)cc2)c(Cl)c1 (stereo not shown) [Compound 18b, 4,4′-(((2-(((2-Chloro-4-sulfamoylphenyl)amino)methyl)succinyl)bis(hydrazin-2-yl-1-ylidene))bis(methaneylylidene))dibenzoic acid] | 13000 | 294 to 295 | 5000 | 6700 | 13000 | 1800 | 6700 | 20000 | 330 | 250 | ≥ 200000 | 1300 | 1000 | – |
| Cc1ccc(C)n1NC(=O)CC(CNc1ccc(S(N)(=O)=O)cc1Cl)C(=O)Nn1c(C)ccc1C (stereo not shown) [Compound 19b, 2-(((2-Chloro-4-sulfamoylphenyl)amino)methyl)-N^1,N^4-bis(2,5-dimethyl-1H-pyrrol-1-yl)succinamide] | 1300 | 232 to 233 | 290 | 20000 | 1800 | 130 | 1400 | 5000 | 200 | 56 | ≥ 200000 | 50 | 25 | – |
| Cc1cc(C)n(C(=O)CC(CNc2ccc(S(N)(=O)=O)cc2Cl)C(=O)n2nc(C)cc2C)n1 (stereo not shown) [Compound 20, 3-Chloro-4-((4-(3,5-dimethyl-1H-pyrazol-1-yl)-2-(3,5-dimethyl-1H-pyrazole-1-carbonyl)-4-oxobutyl)amino)benzenesulfonamide] | 13000 | 201 to 202 | 5000 | 22000 | 2000 | 2900 | 3300 | 20000 | 10000 | 100 | ≥ 200000 | 500 | 330 | – |
| CNC(=S)NNC(=O)CC(CNc1ccc(S(N)(=O)=O)cc1)C(=O)NNC(=S)NC (stereo not shown) [Compound 22a, 2,2′-(2-(((4-Sulfamoylphenyl)amino)methyl)succinyl)bis(N-methylhydrazine-1-carbothioamide)] | 11000 | 192 to 193 | 50000 | 33000 | 6700 | 33000 | 25000 | 13000 | 10000 | 330 | ≥ 200000 | 2500 | 3300 | – |
| CNC(=S)NNC(=O)CC(CNc1ccc(S(N)(=O)=O)cc1Cl)C(=O)NNC(=S)NC (stereo not shown) [Compound 22b] | 2200 | 212 to 213 | 3300 | 6700 | 2000 | 1700 | ≥ 200000 | 3300 | 670 | 100 | ≥ 200000 | 400 | 130 | – |
| NS(=O)(=O)c1ccc(NCC(CC(=O)NNC(=S)Nc2ccccc2)C(=O)NNC(=S)Nc2ccccc2)c(Cl)c1 (stereo not shown) [Compound 23b, 2,2′-(2-(((2-Chloro-4-sulfamoylphenyl)amino)methyl)succinyl)bis(N-phenylhydrazine-1-carbothioamide)] | 50 | 158 to 159 | 67 | 20000 | 1000 | 400 | 1100 | 1000 | 110 | 33 | 15000 | 50 | 50 | – |
| NS(=O)(=O)c1ccc(NCC(Cc2n[nH]c(=S)n2-c2ccccc2)c2n[nH]c(=S)n2-c2ccccc2)c(Cl)c1 (stereo not shown) [Compound 25b, 4-((2,3-bis(4-Phenyl-5-thioxo-4,5-dihydro-1H-1,2,4-triazol-3-yl)propyl)amino)-3-chlorobenzenesulfonamide] | 630 | 175 to 176 | 170 | 38000 | 1400 | 400 | 1400 | 200 | 170 | 25 | 5000 | 25 | 25 | – |
| Cc1csc(N(CCC(=O)NN=Cc2ccccc2)c2ccc(S(N)(=O)=O)cc2)n1 [Compound 30, 4-((3-(2-Benzylidenehydrazineyl)-3-oxopropyl)(4-methylthiazol-2-yl)amino)benzenesulfonamide] | 110000 | 170 to 171 | 3300 | ≥ 200000 | 27000 | 8300 | 11000 | 67000 | 100000 | 290 | ≥ 200000 | 4000 | 6700 | – |
| CCOC(=O)c1sc(N(CCC(=O)NN=Cc2ccccc2)c2ccc(S(N)(=O)=O)cc2)nc1C [Compound 34, Ethyl 2-((3-(2-Benzylidenehydrazineyl)-3-oxopropyl)(4-sulfamoylphenyl)amino)-4-methylthiazole-5-carboxylate] | 14000 | 195 to 196 | 670 | ≥ 200000 | 1000 | 220 | 120 | 10000 | 250 | 170 | ≥ 200000 | 150 | 1000 | – |
| NS(=O)(=O)c1ccc(N(CCC(=O)O)c2nc(-c3ccc(Cl)cc3)c(Cl)s2)cc1 [Compound 36, 3-((5-Chloro-4-(4-chlorophenyl)thiazol-2-yl)(4-sulfamoylphenyl)amino)propanoic acid] | 120 | – | 20 | ≥ 200000 | 3300 | 23 to 40 | 400 | 6300 | 33 | 23 | 17000 | 23 to 40 | – | Intrinsic Gibbs energy change (ΔGint), CAXII (CAXII; 37 °C, calculated (Equation 5)): -14.9 kcal/mol; Intrinsic Gibbs energy change (ΔGint), CAI (CAI; 37 °C, calculated (Equation 5)): -15.5 kcal/mol; Intrinsic Gibbs energy change (ΔGint), CAXIII (CAXIII [2]): -15.1 kcal/mol; pKa [3]: 10.2; Intrinsic Gibbs energy change (ΔGint), CAVA (CAVA; 37 °C, calculated (Equation 5)): ≤ -10.4 kcal/mol; Intrinsic Gibbs energy change (ΔGint), CAIV (CAIV; 37 °C, calculated (Equation 5)): -13.1 kcal/mol; Intrinsic Gibbs energy change (ΔGint), CAVB (CAVB; 37 °C, calculated (Equation 5)): -14 kcal/mol; Intrinsic Gibbs energy change (ΔGint), CAVI (CAVI; 37 °C, calculated (Equation 5)): -13.4 kcal/mol; Intrinsic Gibbs energy change (ΔGint), CAVII (CAVII; 37 °C, calculated (Equation 5)): -15.7 kcal/mol; Intrinsic Gibbs energy change (ΔGint), CAIX (CAIX; 37 °C, calculated (Equation 5)): -16.1 kcal/mol; Intrinsic Gibbs energy change (ΔGint), CAIII (CAIII; 37 °C, calculated (Equation 5)): -12.2 kcal/mol; Intrinsic Gibbs energy change (ΔGint), CAII (CAII; 37 °C, calculated (Equation 5)): -15.5 kcal/mol; Intrinsic Gibbs energy change (ΔGint), CAXIV (CAXIV; 37 °C, calculated (Equation 5)): -15.6 kcal/mol |
